Experimental data taken from US10988523B2, “Modified lipidated Relaxin B chain peptides and their therapeutic use” (Sanofi, priority 2018, dated 2021).
*1 amine or outer side, *2 acyl side, *3 side chain or, on linkers, in order; H or OH if unused. Where a SMILES comes first, the peptide text is derived from it. Side-chain parts run from the residue outwards. [ ]: non-standard residue; d: D form. The star is where a group is joined. PEG12 = NCCOCCOCCOCCOCCOCCOCCOCCOCCOCCOCCOCCOCCC(=O)O; γGlu = O=C(O)[C@H](CCC(=O)[*:2])N[*:1]; 1Nal = N[C@@H](Cc1cccc2ccccc12)C(=O)O; Arg(Me) = CNC(=N)NCCC[C@H](N)C(=O)O; Stearoyl = CCCCCCCCCCCCCCCCCC(=O)*; Palmitoyl = CCCCCCCCCCCCCCCC(=O)*; αMeK = C[C@](N)(CCCCN)C(=O)O; Nle = CCCC[C@H](N)C(=O)O; AEEA = NCCOCCOCC(=O)O; Aib = CC(C)(N)C(=O)O

Target: T1, RXFP1 (Homo sapiens, UniProt Q9HBX9)
T1 construct: OVCAR5 cells expressing endogenous RXFP1; endogenous in cells; host or cells: OVCAR5 cells
T1 sequence (Q9HBX9 1-757): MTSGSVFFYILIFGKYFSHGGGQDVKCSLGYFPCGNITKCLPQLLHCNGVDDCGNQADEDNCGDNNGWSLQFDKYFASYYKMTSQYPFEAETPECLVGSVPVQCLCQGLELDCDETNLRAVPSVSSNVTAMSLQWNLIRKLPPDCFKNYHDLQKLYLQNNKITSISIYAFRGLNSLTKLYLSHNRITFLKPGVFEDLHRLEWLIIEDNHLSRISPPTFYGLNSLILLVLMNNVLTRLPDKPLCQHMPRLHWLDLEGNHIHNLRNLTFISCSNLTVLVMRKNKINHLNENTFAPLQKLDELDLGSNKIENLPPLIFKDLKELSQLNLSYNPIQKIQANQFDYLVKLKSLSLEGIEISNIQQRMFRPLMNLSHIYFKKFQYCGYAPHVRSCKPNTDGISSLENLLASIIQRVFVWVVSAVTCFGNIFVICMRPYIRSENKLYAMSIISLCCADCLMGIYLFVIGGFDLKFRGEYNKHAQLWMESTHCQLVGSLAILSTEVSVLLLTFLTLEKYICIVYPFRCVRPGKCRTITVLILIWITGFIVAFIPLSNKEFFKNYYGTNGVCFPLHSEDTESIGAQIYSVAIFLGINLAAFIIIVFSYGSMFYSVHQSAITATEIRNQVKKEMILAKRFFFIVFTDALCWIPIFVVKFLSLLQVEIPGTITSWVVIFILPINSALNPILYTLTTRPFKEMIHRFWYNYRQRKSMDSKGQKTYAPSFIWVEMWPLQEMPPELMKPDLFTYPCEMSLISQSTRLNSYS
Assay: OVCAR5 cAMP assay (HTRF), RXFP1 agonist activity
Type: cell-based
Details: for Emax: OVCAR-5, maximal cAMP relative to H2-relaxin maximum (100%), read-out: EMax, OVCAR 5 cells (cAMP); for EC50: OVCAR5 cells, cAMP HTRF, read-out: EC50 (nM), OVCAR 5 cells (cAMP)
Outline: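 cAMP accumulation readout: after 1 mM IBMX for 40 min, endogenous-RXFP1 OVCAR5 cells got rising peptide concentrations without FCS, 30 min, 37° C, then lysis with HTRF cAMP reagents. Nonlinear regression gave EC50; Emax expressed relative to H2-relaxin maximum, same occasion.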

Emax [%] | EC50 [nM] | Structure (SMILES)
90 | 0.14 | CCCCCCCCCCCCCCCC(=O)N[C@@H](CCC(=O)NCCCC[C@H](NC(=O)CC[C@H](NC(=O)CC[C@H](NC(=O)CC[C@H](NC(=O)COCCOCCNC(=O)COCCOCCNC(=O)COCCOCCNC(=O)COCCOCCNC(=O)[C@H](CCCCNC(C)=O)NC(=O)[C@H](C)NC(=O)[C@H](CCCNC(=N)NC)NC(=O)[C@](C)(CCCCN)NC(=O)[C@H](CO)NC(=O)[C@H](Cc1ccccc1)NC(=O)[C@@H](NC(=O)[C@H](CO)NC(=O)[C@H](CCCC)NC(=O)CNC(=O)[C@H](CCC(=O)O)NC(=O)C(C)(C)NC(=O)C(C)(C)NC(=O)[C@@H](NC(=O)[C@H](CCCCNC(C)=O)NC(=O)[C@H](C)NC(=O)[C@H](CCCNC(=N)N)NC(=O)[C@@H](NC(=O)[C@H](CCCCN)NC(=O)[C@H](CCC(=O)O)NC(=O)[C@H](CCCNC(=N)N)NC(=O)CNC(=O)[C@H](CCC(=O)O)NC(=O)[C@H](CC(C)C)NC(C)=O)C(C)C)[C@@H](C)CC)[C@@H](C)O)C(=O)O)C(=O)O)C(=O)O)C(N)=O)C(=O)O [compound 151] (Ac-LEGREKVRAK(Ac)I[Aib][Aib]EG[Nle]STFS[αMeK][Arg(Me)]AK(Ac)[AEEA][AEEA][AEEA][AEEA][γGlu][γGlu][γGlu]K([γGlu-Palmitoyl])-NH2)
93 |  | CCCCCCCCCCCCCCCCCC(=O)N[C@@H](CCC(=O)NCCOCCOCC(=O)NCCOCCOCC(=O)NCCOCCOCC(=O)N[C@@H](CCC(=O)N[C@@H](CCC(=O)NCCCC[C@H](NC(=O)[C@H](CCCCN)NC(=O)[C@H](CCCCN)NC(=O)[C@H](CCCNC(=N)N)NC(=O)C(C)(C)NC(=O)[C@H](CO)NC(=O)[C@H](Cc1c[nH]c2ccccc12)NC(=O)[C@@H](NC(=O)[C@H](CO)NC(=O)[C@H](CCCC)NC(=O)CNC(=O)[C@H](CCC(=O)O)NC(=O)C(C)(C)NC(=O)C(C)(C)NC(=O)[C@@H](NC(=O)[C@H](CCC(N)=O)NC(=O)[C@H](C)NC(=O)[C@H](CCCNC(=N)N)NC(=O)[C@@H](NC(=O)[C@H](CCCCN)NC(=O)[C@H](CCC(=O)O)NC(=O)[C@H](CCCNC(=N)N)NC(=O)CNC(=O)[C@H](CCC(=O)O)NC(=O)[C@H](CC(C)C)NC(C)=O)C(C)C)[C@@H](C)CC)[C@@H](C)O)C(N)=O)C(=O)O)C(=O)O)C(=O)O [compound 106] (Ac-LEGREKVRAQI[Aib][Aib]EG[Nle]STWS[Aib]RKKK([γGlu-γGlu-AEEA-AEEA-AEEA-γGlu-Stearoyl])-NH2)
95 |  | CCCCCCCCCCCCCCCCCC(=O)N[C@@H](CCC(=O)N[C@@H](CCC(=O)N[C@@H](CCC(=O)NCCOCCOCC(=O)NCCOCCOCC(=O)NCCOCCOCC(=O)NCCCC[C@H](NC(=O)[C@H](CCCCNC(C)=O)NC(=O)[C@H](C)NC(=O)[C@H](C)NC(=O)C(C)(C)NC(=O)[C@H](CO)NC(=O)[C@H](Cc1c[nH]c2ccccc12)NC(=O)[C@@H](NC(=O)[C@H](CO)NC(=O)[C@H](CCCC)NC(=O)CNC(=O)[C@H](CCC(=O)O)NC(=O)C(C)(C)NC(=O)C(C)(C)NC(=O)[C@@H](NC(=O)[C@H](CCCCNC(C)=O)NC(=O)[C@H](C)NC(=O)[C@H](CCCNC(=N)N)NC(=O)[C@@H](NC(=O)[C@H](CCCCN)NC(=O)[C@H](CCC(=O)O)NC(=O)[C@H](CCCNC(=N)N)NC(=O)CNC(=O)[C@H](CCC(=O)O)NC(=O)[C@H](CC(C)C)NC(C)=O)C(C)C)[C@@H](C)CC)[C@@H](C)O)C(N)=O)C(=O)O)C(=O)O)C(=O)O [compound 155] (Ac-LEGREKVRAK(Ac)I[Aib][Aib]EG[Nle]STWS[Aib]AAK(Ac)K([AEEA-AEEA-AEEA-γGlu-γGlu-γGlu-Stearoyl])-NH2)

The next lines start with the compound.

Structure (SMILES) | Emax [%] | EC50 [nM]
CCCCCCCCCCCCCCCCCC(=O)N[C@@H](CCC(=O)N[C@@H](CCC(=O)N[C@@H](CCC(=O)NCCOCCOCCOCCOCCOCCOCCOCCOCCOCCOCCOCCOCCC(=O)NCCCC[C@H](NC(=O)[C@H](CCCCN)NC(=O)[C@H](CCCCN)NC(=O)[C@H](CCCNC(=N)N)NC(=O)C(C)(C)NC(=O)[C@H](CO)NC(=O)[C@H](Cc1c[nH]c2ccccc12)NC(=O)[C@@H](NC(=O)[C@H](CO)NC(=O)[C@H](CCCC)NC(=O)CNC(=O)[C@H](CCC(=O)O)NC(=O)C(C)(C)NC(=O)C(C)(C)NC(=O)[C@@H](NC(=O)[C@H](CCC(N)=O)NC(=O)[C@H](C)NC(=O)[C@H](CCCNC(=N)N)NC(=O)[C@@H](NC(=O)[C@H](CCCCN)NC(=O)[C@H](CCC(=O)O)NC(=O)[C@H](CCCNC(=N)N)NC(=O)CNC(=O)[C@H](CCC(=O)O)NC(=O)[C@H](CC(C)C)NC(C)=O)C(C)C)[C@@H](C)CC)[C@@H](C)O)C(N)=O)C(=O)O)C(=O)O)C(=O)O [compound 97] (Ac-LEGREKVRAQI[Aib][Aib]EG[Nle]STWS[Aib]RKKK([PEG12-γGlu-γGlu-γGlu-Stearoyl])-NH2) | 98 | 
CCCCCCCCCCCCCCCC(=O)N[C@@H](CCC(=O)N[C@@H](CCC(=O)NCCOCCOCC(=O)NCCOCCOCC(=O)NCCCC[C@H](NC(=O)[C@H](CCCCN)NC(=O)[C@H](CCCNC(=N)N)NC(=O)C(C)(C)NC(=O)[C@H](CO)NC(=O)[C@H](Cc1c[nH]c2ccccc12)NC(=O)[C@@H](NC(=O)[C@H](CO)NC(=O)[C@H](CCCC)NC(=O)CNC(=O)[C@H](CCC(=O)O)NC(=O)C(C)(C)NC(=O)C(C)(C)NC(=O)[C@@H](NC(=O)[C@H](C)NC(=O)[C@H](C)NC(=O)[C@H](CCCNC(=N)N)NC(=O)[C@@H](NC(=O)[C@H](CCCCN)NC(=O)[C@H](CCC(=O)O)NC(=O)[C@H](CCCNC(=N)N)NC(=O)CNC(=O)[C@H](CCC(=O)O)NC(=O)[C@H](CC(C)C)NC(=O)[C@H](CCC(=O)O)NC(C)=O)C(C)C)[C@@H](C)CC)[C@@H](C)O)C(N)=O)C(=O)O)C(=O)O [compound 57] (Ac-ELEGREKVRAAI[Aib][Aib]EG[Nle]STWS[Aib]RKK([AEEA-AEEA-γGlu-γGlu-Palmitoyl])-NH2) | 93 | 4.4
CCCCCCCCCCCCCCCC(=O)N[C@@H](CCC(=O)N[C@@H](CCC(=O)N[C@@H](CCC(=O)NCCCC[C@H](NC(=O)CCOCCOCCOCCOCCOCCOCCOCCOCCOCCOCCOCCOCCNC(=O)[C@H](CCCCN)NC(=O)[C@H](CCCNC(=N)N)NC(=O)C(C)(C)NC(=O)[C@H](CO)NC(=O)[C@H](Cc1cccc2ccccc12)NC(=O)[C@@H](NC(=O)[C@H](CO)NC(=O)[C@H](CCCC)NC(=O)CNC(=O)[C@H](CCC(=O)O)NC(=O)C(C)(C)NC(=O)C(C)(C)NC(=O)[C@@H](NC(=O)[C@H](CCCCNC(C)=O)NC(=O)[C@H](C)NC(=O)[C@H](CCCNC(=N)N)NC(=O)[C@@H](NC(=O)[C@H](CCCCN)NC(=O)[C@H](CCC(=O)O)NC(=O)[C@H](CCCNC(=N)N)NC(=O)CNC(=O)[C@H](CCC(=O)O)NC(=O)[C@H](CC(C)C)NC(C)=O)C(C)C)[C@@H](C)CC)[C@@H](C)O)C(N)=O)C(=O)O)C(=O)O)C(=O)O [compound 29] (Ac-LEGREKVRAK(Ac)I[Aib][Aib]EG[Nle]ST[1Nal]S[Aib]RK[PEG12]K([γGlu-γGlu-γGlu-Palmitoyl])-NH2) | 78 | 
CCCCCCCCCCCCCCCC(=O)N[C@@H](CCC(=O)N[C@@H](CCC(=O)N[C@@H](CCC(=O)N[C@@H](CCC(=O)NCCOCCOCC(=O)NCCOCCOCC(=O)NCCOCCOCC(=O)NCCOCCOCC(=O)NCCCC[C@H](NC(=O)[C@H](CCCCNC(C)=O)NC(=O)[C@H](CCCCN)NC(=O)[C@H](CCCNC(=N)N)NC(=O)[C@](C)(CCCCN)NC(=O)[C@H](CO)NC(=O)[C@H](Cc1ccccc1)NC(=O)[C@@H](NC(=O)[C@H](CO)NC(=O)[C@H](CCCC)NC(=O)CNC(=O)[C@H](CCC(=O)O)NC(=O)C(C)(C)NC(=O)C(C)(C)NC(=O)[C@@H](NC(=O)[C@H](CCCCNC(C)=O)NC(=O)[C@H](C)NC(=O)[C@H](CCCNC(=N)N)NC(=O)[C@@H](NC(=O)[C@H](CCCCN)NC(=O)[C@H](CCC(=O)O)NC(=O)[C@H](CCCNC(=N)N)NC(=O)CNC(=O)[C@H](CCC(=O)O)NC(=O)[C@H](CC(C)C)NC(C)=O)C(C)C)[C@@H](C)CC)[C@@H](C)O)C(N)=O)C(=O)O)C(=O)O)C(=O)O)C(=O)O [compound 140] (Ac-LEGREKVRAK(Ac)I[Aib][Aib]EG[Nle]STFS[αMeK]RKK(Ac)K([AEEA-AEEA-AEEA-AEEA-γGlu-γGlu-γGlu-γGlu-Palmitoyl])-NH2) | 88 | 0.4
